Experimental data reported in patent US20080227813A1, “Pharmaceutical compositions and methods for treating diseases associated with neurodegeneration” (priority 2006, published 2008).
Read-outs that look alike come from different tables or passages of the source.

How the values were obtained:
CRL:NMRI BR mice [1] = experiment: Acute oral toxicity in mice; format: in vivo; settings: mouse
Experimental: All animal toxicology studies were performed at Toxicological Research Centre (Veszprém, Hungary) using protocols compliant with OECD guidelines and Principles of Good Laboratory Practice. Following is a summary of the studies conducted.
Acute oral toxicity studies were performed in rats (CRL(WI:)BR) and in mice (CRL: NMRI BR). A control and five dose groups were involved in the rat study at dose levels of 2000 mg/kg, 2600 mg/kg, 3400 mg/kg, 4400 mg/kg and 5700 mg/kg (equal to 1241 mg/kg, 1613 mg/kg, […], 2729 mg/kg and 3535 mg/kg free base, n=5 animals/sex/group).

CRL:NMRI BR mice [2] = experiment: Acute intraperitoneal toxicity in mice; format: in vivo; settings: mouse
Experimental: Acute intraperitoneal toxicity studies were performed in rats (CRL(WI:)BR) and in mice (CRL: NMRI BR).
In the case of the mouse study a control and five dose groups were involved at dose levels of 850 mg/kg, 1100 mg/kg, 1500 mg/kg, 1900 mg/kg and 2600 mg/kg (equal to 527 mg/kg, 682 mg/kg, 930 mg/kg, 1178 mg/kg and 1613 mg/kg free base, n=5 animals/sex/group).

Beagle dogs = experiment: 28-day repeated dose oral toxicity study in dogs; format: in vivo, dog; settings: for No observed adverse effect level (NOAEL): Beagle dogs male and female, 28-day oral
Experimental: The control animals were treated in the same manner with placebo gelatin capsules.
Pre-treatment: hematological, clinical chemistry and ECG investigations and opthalmoscopic examinations were performed.
During the treatment period: check of mortality and clinical observation were performed at least twice daily and weighing the non-consumed food was performed daily. The body weights of animals were measured once a week. At the end of the treatment, hematological laboratory and ECG investigations, opthalmoscopic examinations, gross necropsy, histopathological and histometrical examinations were performed.

[3] = tested on: Salmonella typhimurium strains TA98, TA100, TA1537, TA1535 and Escherichia coli WP2 uvrA; experiment: Genotoxicity in bacterial assays; format: cell-based; settings: up to 5000 μg test item/plate, with and without rat liver fraction
[4] = rat, in vivo
[5] = rat, in vivo; remark: listed apart in the source
Experimental: The pharmacokinetic properties of total radioactivity were studied in male and female Wistar rats at the dose of 25.8 mg/kg ^14C labeled Compound I (equal to 16 mg/kg free base) administered intravenously and orally (Study B: Compound I/PRE SK-007). The concentrations of total radioactivity were monitored by liquid scintillation counting and whole-body autoradiographic methods in serum, organs, tissues, and excreta. All parts of the study were performed in both sexes (n=5 in both sexes).

[6] = human, in vivo
[7] = dog, 70-210 mg/kg/day oral, 28 days

For `[O-][n+]1cccc(/C(Cl)=N/OC[C@H](O)CN2CCCCC2)c1` [Compound I, N-[2-hydroxy-3-(1-piperidinyl)-propoxy]-pyridine-1-oxide-3-carboximidoyl chloride], the “Oral LD50 value” (CRL:NMRI BR mice [1]; female, by base) was >3101 - by base mg/kg, the “Oral LD50 value” (CRL:NMRI BR mice [1]; female, by citrate) was >5000 - by citrate mg/kg and the “Oral LD50 value” (CRL:NMRI BR mice [1]; male, by base) was >3101 - by base mg/kg. For the same compound, the “Oral LD50 value” (CRL:NMRI BR mice [1]; male, by citrate) was >5000 - by citrate mg/kg, the “Intraperitoneal LD50 value” (CRL:NMRI BR mice [2]; female, by base) was 738 - by base mg/kg and the “Intraperitoneal LD50 value” (CRL:NMRI BR mice [2]; female, by citrate) was 1189 - by citrate mg/kg. For the same compound, the “Intraperitoneal LD50 value” (CRL:NMRI BR mice [2]; male, by base) was 839 (674-1023) by base mg/kg, the “No observed adverse effect level (NOAEL)” value (Beagle dogs; by base) was 43.4 mg/kg/day and the “No observed adverse effect level (NOAEL)” value (Beagle dogs; by citrate) was 70 mg/kg/day. For the same compound, the “ECG and ophthalmologic alterations” value (Beagle dogs; [7]) was “did not cause ECG and opthalmologic alterations”, the mortality (Beagle dogs; [7]) was “No deaths occurred” and the mutagenic activity [3] was “no mutagenic activity”. For the same compound, the clearance [4] was “higher than the hepatic clearance”, the “time of peak serum values” ([4]; po, 25.8 mg/kg) was 15 min and the “dose eliminated with bile” value [5] was 20-30 % of dose. For the same compound, the “dose remaining in the rats” value [5] was about 20%, the “radioactivity by 3rd post-treatment hour, share of first measured concentration” value ([5]; iv, 25.8 mg/kg) was 20% and the “organ radioactivity at 4th hour, share of 45 min values” ([5]; po) was 20-60%. For the same compound, the “penetration through the blood-brain barrier” value ([5]; po) was “weak penetration through the blood-brain barrier”, the “increase of radioactivity in organs and tissues” value ([5]; po, 25.8 mg/kg) was 4-12 fold and the “time of first maximal serum concentration of radioactivity” value ([5]; po, 25.8 mg/kg) was at most 1 h. The “total exposure of last day (0-24 h AUD) vs first day” value ([5]; po, 25.8 mg/kg) was “more than two times higher”, the “amount of metabolite No. 1” value (rat hepatocytes) was 0.32 % of the total radioactivity and the “amount of metabolite No. 2” value (rat hepatocytes) was 1.89 % of the total radioactivity. The “amount of metabolite No. 3” value (rat hepatocytes) was 47.7 % of the total radioactivity, the “amount of metabolite No. 4” value (rat hepatocytes) was 15.1 % of the total radioactivity and the clearance (rat hepatocytes; rat, hepatocytes) was 0.84 mL/h. For the same compound, the t1/2 (rat hepatocytes; rat, hepatocytes) was 0.82 h, the “amount of metabolite No. 1” value (human hepatocytes) was 0.64 % of the total radioactivity and the “amount of metabolite No. 2” value (human hepatocytes) was 0.60 % of the total radioactivity. For the same compound, the “amount of metabolite No. 3” value (human hepatocytes) was 0.80 % of the total radioactivity, the “amount of metabolite No. 4” value (human hepatocytes) was 0.62 % of the total radioactivity and the “amount of metabolite No. 5 (bimoclomol)” value (human hepatocytes) was 2.59 % of the total radioactivity. For the same compound, the clearance (human hepatocytes; human, hepatocytes) was 0.040 mL/h, the t1/2 (human hepatocytes; human, hepatocytes) was 17.2 h and the route of removal [6] was “mostly removed unchanged in urine”. For the same compound, the “Mean t1/2 values” ([6]; po) was 2.5 to 6.2 h, the Tmax values ([6]; po) was 0.5 to 1.1 h and the t1/2 ([6]; po) was 4 h. For the same compound, the “AUC(0-t), GeoMean” value ([6]; po, 50 mg) was 590 ng·h/mL, the “AUC(0-t), Mean” value ([6]; po, 50 mg) was 600 ng·h/mL and the “AUC, GeoMean” value ([6]; po, 50 mg) was 640 ng·h/mL. For the same compound, the “AUC, Mean” value ([6]; po, 50 mg) was 650 ng·h/mL, the “Cmax, GeoMean” value ([6]; po, 50 mg) was 160 ng/mL and the “Cmax, Mean” value ([6]; po, 50 mg) was 170 ng/mL. The “MRT, GeoMean” value ([6]; po, 50 mg) was 3.4 h, the “MRT, Mean” value ([6]; po, 50 mg) was 3.5 h and the “Tmax, GeoMean” value ([6]; po, 50 mg) was 0.82 h. For the same compound, the “Tmax, Mean” value ([6]; po, 50 mg) was 0.9 h, the “t½, GeoMean” value ([6]; po, 50 mg) was 3 h and the “t½, Mean” value ([6]; po, 50 mg) was 3.1 h. The “AUC(0-t), GeoMean” value ([6]; po, 100 mg) was 1400 ng·h/mL, the “AUC(0-t), Mean” value ([6]; po, 100 mg) was 1400 ng·h/mL and the “AUC, GeoMean” value ([6]; po, 100 mg) was 1600 ng·h/mL. For the same compound, the “AUC, Mean” value ([6]; po, 100 mg) was 1600 ng·h/mL, the “Cmax, GeoMean” value ([6]; po, 100 mg) was 390 ng/mL and the “Cmax, Mean” value ([6]; po, 100 mg) was 400 ng/mL. The “MRT, GeoMean” value ([6]; po, 100 mg) was 3.7 h, the “MRT, Mean” value ([6]; po, 100 mg) was 3.8 h and the “Tmax, GeoMean” value ([6]; po, 100 mg) was 1 h. The “Tmax, Mean” value ([6]; po, 100 mg) was 1.1 h, the “t½, GeoMean” value ([6]; po, 100 mg) was 3.5 h and the “t½, Mean” value ([6]; po, 100 mg) was 3.7 h. The “AUC(0-t), GeoMean” value ([6]; po, 200 mg) was 2700 ng·h/mL, the “AUC(0-t), Mean” value ([6]; po, 200 mg) was 2700 ng·h/mL and the “AUC, GeoMean” value ([6]; po, 200 mg) was 2800 ng·h/mL. For the same compound, the “AUC, Mean” value ([6]; po, 200 mg) was 2800 ng·h/mL, the “Cmax, GeoMean” value ([6]; po, 200 mg) was 890 ng/mL and the “Cmax, Mean” value ([6]; po, 200 mg) was 890 ng/mL. For the same compound, the “MRT, GeoMean” value ([6]; po, 200 mg) was 3.7 h, the “MRT, Mean” value ([6]; po, 200 mg) was 3.8 h and the “Tmax, GeoMean” value ([6]; po, 200 mg) was 0.82 h. The “Tmax, Mean” value ([6]; po, 200 mg) was 0.9 h, the “t½, GeoMean” value ([6]; po, 200 mg) was 3.1 h and the “t½, Mean” value ([6]; po, 200 mg) was 3.1 h. For the same compound, the “AUC(0-t), GeoMean” value ([6]; po, 400 mg) was 6200 ng·h/mL, the “AUC(0-t), Mean” value ([6]; po, 400 mg) was 6300 ng·h/mL and the “AUC, GeoMean” value ([6]; po, 400 mg) was 6300 ng·h/mL. For the same compound, the “AUC, Mean” value ([6]; po, 400 mg) was 6400 ng·h/mL, the “Cmax, GeoMean” value ([6]; po, 400 mg) was 1800 ng/mL and the “Cmax, Mean” value ([6]; po, 400 mg) was 1800 ng/mL. For the same compound, the “MRT, GeoMean” value ([6]; po, 400 mg) was 4.5 h, the “MRT, Mean” value ([6]; po, 400 mg) was 4.5 h and the “Tmax, GeoMean” value ([6]; po, 400 mg) was 0.82 h. For the same compound, the “Tmax, Mean” value ([6]; po, 400 mg) was 0.9 h, the “t½, GeoMean” value ([6]; po, 400 mg) was 4 h and the “t½, Mean” value ([6]; po, 400 mg) was 4.1 h. For the same compound, the “AUC(0-t), GeoMean” value ([6]; po, 600 mg) was 8900 ng·h/mL, the “AUC(0-t), Mean” value ([6]; po, 600 mg) was 9100 ng·h/mL and the “AUC, GeoMean” value ([6]; po, 600 mg) was 9000 ng·h/mL. For the same compound, the “AUC, Mean” value ([6]; po, 600 mg) was 9200 ng·h/mL, the “Cmax, GeoMean” value ([6]; po, 600 mg) was 2900 ng/mL and the “Cmax, Mean” value ([6]; po, 600 mg) was 3000 ng/mL. For the same compound, the “MRT, GeoMean” value ([6]; po, 600 mg) was 3.9 h, the “MRT, Mean” value ([6]; po, 600 mg) was 4 h and the “Tmax, GeoMean” value ([6]; po, 600 mg) was 0.5 h. For the same compound, the “Tmax, Mean” value ([6]; po, 600 mg) was 0.5 h, the “t½, GeoMean” value ([6]; po, 600 mg) was 4.2 h and the “t½, Mean” value ([6]; po, 600 mg) was 4.3 h. The “AUC(0-t), GeoMean” value ([6]; po, 800 mg) was 12000 ng·h/mL, the “AUC(0-t), Mean” value ([6]; po, 800 mg) was 12000 ng·h/mL and the “AUC, GeoMean” value ([6]; po, 800 mg) was 12000 ng·h/mL. The “AUC, Mean” value ([6]; po, 800 mg) was 12000 ng·h/mL, the “Cmax, GeoMean” value ([6]; po, 800 mg) was 3700 ng/mL and the “Cmax, Mean” value ([6]; po, 800 mg) was 3800 ng/mL. The “MRT, GeoMean” value ([6]; po, 800 mg) was 4.1 h, the “MRT, Mean” value ([6]; po, 800 mg) was 4.1 h and the “Tmax, GeoMean” value ([6]; po, 800 mg) was 0.76 h. For the same compound, the “Tmax, Mean” value ([6]; po, 800 mg) was 0.8 h, the “t½, GeoMean” value ([6]; po, 800 mg) was 3.4 h and the “t½, Mean” value ([6]; po, 800 mg) was 3.5 h.
